Measured values from BindingDB's records for doi:10.1021/acs.jmedchem.6b01870 (Purdue University, 2017).

Legend:
[1] = biological target: Tyrosyl-DNA phosphodiesterase 1 (Homo sapiens, UniProt Q9NUW8); assay: ChEBML_1689436
Description: Inhibition of recombinant TDP1 (unknown origin) using 5'-[32P]-labeled single stranded DNA containing a 3'-phosphotyrosine as substrate after 15 mins by PAGE analysis

[2] = biological target: T1, Tyrosyl-DNA phosphodiesterase 2 (Homo sapiens, UniProt O95551); assay: ChEBML_1689437
T1 sequence (O95551 whole entry): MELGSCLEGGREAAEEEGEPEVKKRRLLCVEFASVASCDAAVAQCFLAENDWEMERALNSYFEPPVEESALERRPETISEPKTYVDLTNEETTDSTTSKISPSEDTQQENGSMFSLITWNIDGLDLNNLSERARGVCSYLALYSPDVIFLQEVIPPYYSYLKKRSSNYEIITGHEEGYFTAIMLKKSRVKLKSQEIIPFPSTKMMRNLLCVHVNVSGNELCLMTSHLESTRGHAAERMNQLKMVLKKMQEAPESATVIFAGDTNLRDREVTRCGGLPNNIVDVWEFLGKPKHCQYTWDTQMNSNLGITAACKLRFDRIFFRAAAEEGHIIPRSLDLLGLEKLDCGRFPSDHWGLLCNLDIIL
Description: Inhibition of recombinant human TDP2 using 3'-labeled alpha-[32P]-cordycepin as substrate after 15 mins

Tyrosyl-DNA phosphodiesterase 1, sequence (Q9NUW8 whole entry): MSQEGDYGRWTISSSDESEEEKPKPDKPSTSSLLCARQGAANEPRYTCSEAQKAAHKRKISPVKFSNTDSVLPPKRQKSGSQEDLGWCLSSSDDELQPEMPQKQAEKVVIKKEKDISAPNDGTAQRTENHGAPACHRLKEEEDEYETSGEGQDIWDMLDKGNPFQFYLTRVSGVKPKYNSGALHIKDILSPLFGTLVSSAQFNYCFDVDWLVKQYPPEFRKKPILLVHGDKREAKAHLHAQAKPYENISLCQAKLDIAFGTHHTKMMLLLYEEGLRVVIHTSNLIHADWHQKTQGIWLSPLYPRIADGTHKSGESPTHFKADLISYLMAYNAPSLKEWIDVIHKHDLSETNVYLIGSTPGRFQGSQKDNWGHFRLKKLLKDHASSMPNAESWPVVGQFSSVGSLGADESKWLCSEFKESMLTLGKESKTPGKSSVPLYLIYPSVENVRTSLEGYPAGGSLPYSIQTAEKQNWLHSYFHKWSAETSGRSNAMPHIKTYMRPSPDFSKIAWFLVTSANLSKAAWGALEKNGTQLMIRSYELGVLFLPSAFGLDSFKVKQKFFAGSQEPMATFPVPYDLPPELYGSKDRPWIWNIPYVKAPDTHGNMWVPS

**Q.** What does the source list for `CC[C@@]1(O)C(=O)OCc2c1cc1n(c2=O)Cc2cc3ccccc3nc2-1` [4-Ethyl-4-hydroxy-1,12-dihydro-4H-2-oxa-6,12a-diaza-dibenzo[b,h]fluorene-3,13-dione (Camptothecin)]?
**A.** IC50 [1]: > 111 µM; IC50 [2]: > 111 µM
